According to patent US8937183B2, “Detection of hydrogen peroxide” (Promega Corporation, priority 2011, dated 2015):

Test: Signal strength differences due to reaction pH and buffer composition (hydrogen peroxide, D-cysteine conversion, LDR)
Type: biochemical
Conditions: for Net Average Signals at 15 Minutes / Net Average Signals at 60 Minutes / Net Average Signals at 105 Minutes: 100 μl of 10 μM H2O2 added
Protocol: A 30 μl sample of 4 mg/ml PBI 4458 in DMSO was diluted to 1.5 ml with Nanopure water, and 50 μl added to wells A1-12 and E1-12 of a microtiter plate. A 30 μl sample of 4 mg/ml PBI 4472 in DMSO was diluted to 1.5 ml with Nanopure, and 50 μl added to wells B1-12 and F1-12 of the plate. A 30 μl sample of 4 mg/ml PBI 4480 in DMSO was diluted to 1.5 ml with Nanopure water, and 50 μl added to wells C1-12 and G1-12 of the plate. A 30 μl sample of 4 mg/ml PBI 4481 in DMSO was diluted to 1.5 ml with Nanopure water, and 50 μl added to wells D1-12 and H1-12 of the plate. To the plate, a 50 μl sample of 200 mM KHPO4, pH 7.4 was added to wells A1-D4; 50 μl 200 mM Tris buffer, pH 7.4 was added to wells A5-D8; 50 μl 250 mM HEPES buffer, pH 7.5 was added to wells A9-D12; 50 μl 200 mM KHPO4 buffer, pH 9.2 was added to wells E1-H4; 50 μl 250 mM Tris buffer, pH 10.4 was added to wells E5-H8; and 50 μl 100 mM CAPS buffer, pH 10.4 was added to wells E9-H12.
A sample of hydrogen peroxide (30%, Sigma, H1009-5 ml) was diluted to 10 μM with Nanopure water, and 100 μl added to columns 3, 4, 7, 8, 11, 12 wells A-H of the plate. 100 μl Nanopure water was added to columns 1, 2, 5, 6, 9 and 10 of the plate. The plate was incubated at room temperature for 15 minutes.
A conversion solution was made by mixing 5 ml of 1 M HEPES buffer, pH 7.5, 4.9 ml of Nanopure water and 100 μl of 100 mM D-cysteine (in Nanopure water), and […] added to all wells of a luminometer plate.
After incubation, 25 μl of sample from all wells in the plate was transferred and mixed into the corresponding wells in the luminometer plate, incubated 2-3 minutes at room temperature, and 50 μl LDR (Example 23) added. The luminometer plate was incubated for 15 minutes at room temperature, and bioluminescence detected on a GloMax® luminometer.
Additional samples were taken at 60 and 105 minutes and added to a fresh luminometer plates containing 25 μl of conversion solution in all wells. The plates were then incubated for 15 minutes at room temperature, and bioluminescence detected as previously described.

| SMILES | Signal to Background Ratios at 15 Minutes (CAPS pH 10.4, 15 minutes) | Net Average Signals at 15 Minutes (CAPS pH 10.4, 15 minutes) | Signal to Background Ratios at 60 Minutes (CAPS pH 10.4, 60 minutes) | Net Average Signals at 60 Minutes (CAPS pH 10.4, 60 minutes) | Signal to Background Ratios at 105 Minutes (CAPS pH 10.4, 105 minutes) | Net Average Signals at 105 Minutes (CAPS pH 10.4, 105 minutes) | Signal to Background Ratios at 15 Minutes (HEPES pH 7.5, 15 minutes) | Net Average Signals at 15 Minutes (HEPES pH 7.5, 15 minutes) | Signal to Background Ratios at 60 Minutes (HEPES pH 7.5, 60 minutes) | Net Average Signals at 60 Minutes (HEPES pH 7.5, 60 minutes) | Signal to Background Ratios at 105 Minutes (HEPES pH 7.5, 105 minutes) | Net Average Signals at 105 Minutes (HEPES pH 7.5, 105 minutes) | Net Average Signals at 15 Minutes (KPO4 Ph 7.4, 15 minutes) | Signal to Background Ratios at 15 Minutes (KPO4 pH 7.4, 15 minutes) | Signal to Background Ratios at 60 Minutes (KPO4 pH 7.4, 60 minutes) | Net Average Signals at 60 Minutes (KPO4 pH 7.4, 60 minutes) | Signal to Background Ratios at 105 Minutes (KPO4 pH 7.4, 105 minutes) | Net Average Signals at 105 Minutes (KPO4 pH 7.4, 105 minutes) | Signal to Background Ratios at 15 Minutes (KPO4 pH 9.2, 15 minutes) | Net Average Signals at 15 Minutes (KPO4 pH 9.2, 15 minutes) | also measured |
| --- | --- | --- | --- | --- | --- | --- | --- | --- | --- | --- | --- | --- | --- | --- | --- | --- | --- | --- | --- | --- | --- |
| CC1(C)OB(c2ccc(COc3ccc4nc(C#N)sc4c3)c3ccccc23)OC1(C)C [PBI 4480, 6-((4-(4,4,5,5-tetramethyl-1,3,2-dioxaborolan-2-yl)naphthalen-1-yl)methoxy)benzo[d]thiazole-2-carbonitrile] | 12.1 | 1,799,015 RLU | 14.7 | 4,256,769 RLU | 12.6 | 7,150,225 RLU | 1.0 | −234 RLU | 1.7 | 29,727 RLU | 2.3 | 75,066 RLU | 3,538 RLU | 1.1 | 1.6 | 38,198 RLU | 1.9 | 86,881 RLU | 1.7 | 37,330 RLU | Signal to Background Ratios at 60 Minutes (KPO4 pH 9.2, 60 minutes): 3.6; Net Average Signals at 60 Minutes (KPO4 pH 9.2, 60 minutes): 218,078 RLU; Signal to Background Ratios at 105 Minutes (KPO4 pH 9.2, 105 minutes): 5.1; Net Average Signals at 105 Minutes (KPO4 pH 9.2, 105 minutes): 587,867 RLU; Signal to Background Ratios at 15 Minutes (TRIS pH 10.4, 15 minutes): 11.1; Net Average Signals at 15 Minutes (TRIS pH 10.4, 15 minutes): 743,427 RLU; Signal to Background Ratios at 60 Minutes (TRIS pH 10.4, 60 minutes): 17.9; Net Average Signals at 60 Minutes (TRIS pH 10.4, 60 minutes): 1,903,885 RLU; Signal to Background Ratios at 105 Minutes (TRIS pH 10.4, 105 minutes): 17.5; Net Average Signals at 105 Minutes (TRIS pH 10.4, 105 minutes): 3,541,742 RLU; Signal to Background Ratios at 15 Minutes (Tris pH 7.4, 15 minutes): 1.2; Net Average Signals at 15 Minutes (Tris pH 7.4, 15 minutes): 7,845 RLU; Signal to Background Ratios at 60 Minutes (Tris pH 7.4, 60 minutes): 2.0; Net Average Signals at 60 Minutes (Tris pH 7.4, 60 minutes): 61,031 RLU; Signal to Background Ratios at 105 Minutes (Tris pH 7.4, 105 minutes): 2.6; Net Average Signals at 105 Minutes (Tris pH 7.4, 105 minutes): 162,663 RLU |
| CC1(C)OB(c2ccc(COc3ccc4nc(C#N)sc4c3)cc2F)OC1(C)C [PBI 4481, 6-((3-fluoro-4-(4,4,5,5-tetramethyl-1,3,2-dioxaborolan-2-yl)benzyl)oxy)benzo[d]thiazole-2-carbonitrile] | 15.0 | 3,139,869 RLU | 15.6 | 4,514,998 RLU | 12.3 | 6,646,007 RLU | 1.4 | 15,697 RLU | 2.5 | 56,121 RLU | 3.0 | 111,757 RLU | 16,032 RLU | 1.5 | 2.2 | 48,355 RLU | 2.7 | 108,403 RLU | 4.7 | 189,573 RLU | Signal to Background Ratios at 60 Minutes (KPO4 pH 9.2, 60 minutes): 8.3; Net Average Signals at 60 Minutes (KPO4 pH 9.2, 60 minutes): 494,981 RLU; Signal to Background Ratios at 105 Minutes (KPO4 pH 9.2, 105 minutes): 7.7; Net Average Signals at 105 Minutes (KPO4 pH 9.2, 105 minutes): 974,784 RLU; Signal to Background Ratios at 15 Minutes (TRIS pH 10.4, 15 minutes): 23.2; Net Average Signals at 15 Minutes (TRIS pH 10.4, 15 minutes): 1,467,615 RLU; Signal to Background Ratios at 60 Minutes (TRIS pH 10.4, 60 minutes): 27.8; Net Average Signals at 60 Minutes (TRIS pH 10.4, 60 minutes): 2,780,433 RLU; Signal to Background Ratios at 105 Minutes (TRIS pH 10.4, 105 minutes): 24.2; Net Average Signals at 105 Minutes (TRIS pH 10.4, 105 minutes): 4,441,956 RLU; Signal to Background Ratios at 15 Minutes (Tris pH 7.4, 15 minutes): 1.9; Net Average Signals at 15 Minutes (Tris pH 7.4, 15 minutes): 29,382 RLU; Signal to Background Ratios at 60 Minutes (Tris pH 7.4, 60 minutes): 3.5; Net Average Signals at 60 Minutes (Tris pH 7.4, 60 minutes): 111,440 RLU; Signal to Background Ratios at 105 Minutes (Tris pH 7.4, 105 minutes): 4.4; Net Average Signals at 105 Minutes (Tris pH 7.4, 105 minutes): 245,489 RLU |
| CC1(C)OB(/C=C/COc2ccc3nc(C#N)sc3c2)OC1(C)C [PBI 4458, (E)-6-((3-(4,4,5,5-tetramethyl-1,3,2-dioxaborolan-2-yl)allyl)oxy)-benzo[d]thiazole-2-carbonitrile] | 13.2 | 4,577,774 RLU | 12.1 | 5,831,485 RLU | 9.6 | 8,063,108 RLU | 2.0 | 117,752 RLU | 4.5 | 494,958 RLU | 5.7 | 1,033,511 RLU | 148,190 RLU | 2.2 | 4.5 | 615,057 RLU | 5.4 | 1,297,857 RLU | 6.4 | 937,111 RLU | Signal to Background Ratios at 60 Minutes (KPO4 pH 9.2, 60 minutes): 9.5; Net Average Signals at 60 Minutes (KPO4 pH 9.2, 60 minutes): 2,490,775 RLU; Signal to Background Ratios at 105 Minutes (KPO4 pH 9.2, 105 minutes): 9.1; Net Average Signals at 105 Minutes (KPO4 pH 9.2, 105 minutes): 4,925,484 RLU; Signal to Background Ratios at 15 Minutes (TRIS pH 10.4, 15 minutes): 15.2; Net Average Signals at 15 Minutes (TRIS pH 10.4, 15 minutes): 2,348,900 RLU; Signal to Background Ratios at 60 Minutes (TRIS pH 10.4, 60 minutes): 19.4; Net Average Signals at 60 Minutes (TRIS pH 10.4, 60 minutes): 3,795,644 RLU; Signal to Background Ratios at 105 Minutes (TRIS pH 10.4, 105 minutes): 15.7; Net Average Signals at 105 Minutes (TRIS pH 10.4, 105 minutes): 5,482,012 RLU; Signal to Background Ratios at 15 Minutes (Tris pH 7.4, 15 minutes): 2.2; Net Average Signals at 15 Minutes (Tris pH 7.4, 15 minutes): 150,205 RLU; Signal to Background Ratios at 60 Minutes (Tris pH 7.4, 60 minutes): 4.6; Net Average Signals at 60 Minutes (Tris pH 7.4, 60 minutes): 626,927 RLU; Signal to Background Ratios at 105 Minutes (Tris pH 7.4, 105 minutes): 6.0; Net Average Signals at 105 Minutes (Tris pH 7.4, 105 minutes): 1,274,061 RLU |
